# From patent publication EP1224299B1, “RECOMBINANT PROTEINS AND PEPTIDES FOR ENDOTOXIN BIOSENSORS, ENDOTOXIN REMOVAL, AND ANTI-MICROBIAL AND ANTI-ENDOTOXIN THERAPEUTICS” (priority 1999, dated 2001)
# Read-outs that look alike come from different tables or passages of the source. Ends that are not written are not given here. Peptide text beside a SMILES is read from it.
# Tests used:
# [1] = Limulus Kinetic-QCL assay, inhibition of endotoxin-induced LAL reaction; type: biochemical, E.coli 055:B5; settings: 200 EU/ml LPS, 1 h at 37 °C, 1000-fold dilution; read-out: 50% endotoxin-neutralizing concentration (ENC50)
# Description: The Limulus Kinetic-QCL is a quantitative, kinetic assay for the detection of gram-negative bacterial endotoxin. This assay utilizes the initial part of LAL endotoxin reaction to activate an enzyme, which in turn releases p-nitroaniline from a synthetic substrate, producing a yellow color. The time required before the appearance of a yellow color is inversely proportional to the amount of endotoxin present. Throughout the assay, the absorbance at 405 nm of each well of the microplate was monitored. Using the initial absorbance reading of each well as its own blank, the time required for the absorbance to increase 0.200 absorbance units were calculated as Reaction Time.
# Briefly, 25 µl of endotoxin solution (LPS, E.coli 055:B5) at 200 EU/ml was mixed with an equal volume of SSCrFCES at 1 µM, in a series of 2-fold dilutions in LAL reagent water in disposable endotoxin-free glass dilution tubes (BioWhittaker) and incubated at 37°C for one hour. […] The endotoxin activity was then quantified with Limulus Kinetic-QCL. […] The plate was then pre-incubated for > 10 minutes in a temperature-controlled ELISA plate reader. […] The absorbance at 405 nm of each well of the microtitre plate was monitored at time intervals of 5 minutes over a period of 2 hours. A 5 second automix was activated prior to reading. […]
# The high sensitivity of the assay allowed for very low levels of endotoxin to be detected. […]
# [2] = Hill's plot for interaction between synthetic peptides and lipid A; type: binding
# [3] = LPS-induced lethality in galactosamine-sensitized mice; type: in vivo, C57BL/6J mice; settings: for protection: 25 and 75 µg peptide; for decrease in LPS-induced lethality: 25 or 75 µg, pre-incubated with LPS 30 min prior to i.p. injection
# Protocol: The anti-endotoxin potency of SSCrFCES was investigated in C57BL/6J mice. Mice are typically resistant to endotoxin. However, the sensitivity of mice to endotoxin can be enhanced > 1,000-fold by co-injection with a liver-specific inhibitor, galactosamine (31). In our study, intraperitoneal (i.p.) injection of 2.5 ng of E. coli 055:B5 LPS together with 15 mg of galactosamine hydrochloride in 0.2 ml of saline induced nearly 100% lethality in 18-25 g C57BL/6J mice within 7 hours. Various concentrations of SSCrFCES (1, 2, and 4 µM) and synthetic peptides (25 and 75 µg) were injected intravenously (i.v.) through tail vein 10 minutes after i.p. injection of the LPS-galactosamine mixture. Lethality was observed over 3 days after injection. Statistical analysis were performed using the Kaplan-Meier test (32) and log rank pairwise test.
# [4] = test system: 30 clinical strains of P. aeruginosa; experiment: Microbicidal concentration (MBC) assay, 30 clinical strains; type: cell-based; settings: for MBC50: concentration of peptide required to kill 50% of the strains
# Protocol: Test strains cultured on Mueller-Hinton agar (MHA, Becton Dickinson, USA) were inoculated into 10 ml Mueller-Hinton broth (MHB, Becton Dickinson, USA) and grown overnight at 37°C in a shaker incubator (Model 4536, Forma Scientific, Inc., USA) at 230 rpm. Overnight broth cultures were diluted to give a final cell density of 10^5 colony forming units/ml (cfu/ml). One hundred microliters of the bacterial suspension was dispensed into sterile polypropylene 8-strip PCR-tubes (Quality Scientific Plastics, USA). Eleven microliters of serially diluted sushi peptides, ranging in final concentrations of 0.03-4 µg/ml, were then added. The peptides were constituted at 10 times the required test concentrations in 0.01% acetic acid and 0.2% bovine serum albumin (BSA). Positive controls were cultures without test peptides. Uninoculated MHB was used as negative control. All tests were carried out in triplicate.
# Cultures were incubated at 37°C for 18-24 h, with the PCR-tubes held in horizontal position and shaken at 230 rpm. Cell counts were determined by standard drop-count method. The killing efficiency for the four sushi peptides were calculated based on standard drop-count method.
# [5] = test system: P. aeruginosa ATCC 27853; experiment: Killing rate assay; type: cell-based; settings: 0.06 µg/ml, initial 10^9 cfu/ml; concentration achieving MBC90
# Description: The killing rate assay was adapted from the MBC test above, with different contact time of peptides with the bacteria arrested at regular intervals and plated for colony count. An initial density of 10^9 cfu/ml was used. […] This is one of the important features of an effective therapeutic agent.
# [6] = test system: Human erythrocytes; experiment: Hemolysis assay, human erythrocytes; type: cell-based; settings: for Concentration of peptide to induce 50% haemolysis: red cells of human; for Hemolytic activity: at 100 µg/ml, 0.4% erythrocytes, 1 h
# Protocol: Human and rabbit erythrocytes were both used to test the hemolytic activities of the peptides. Whole blood was collected in heparinized sterile syringe, transferred to sterile borosilicate tube and centrifuged at 1200 g for 5 minutes at 4°C. The supernatant including the leukocytes above the erythrocyte pellet was discarded. The erythrocytes were washed 3 times using three volumes of pre-chilled pyrogen-free saline (PFS). An erythrocyte suspension at 0.4% was prepared for the hemolysis assay. Serial two-fold dilutions of the peptides was prepared in PFS and 100 µl aliquots were added to equal volumes of 0.4% erythrocyte solution in a 96-well microtiter plate (Nunclon™ Δ surface, Nunc) to give final peptide concentrations ranging from 6 to 100 µg/ml. The mixtures were incubated at 37°C for 1 h. The intact erythrocytes were then pelleted by centrifuging at 1000 g for 5 min. One hundred µl of the supernatant was transferred to a new 96-well microtiter plate and the amount of hemoglobin released into the supernatant was determined by reading the absorbance at 414nm using a SPECTRAmax™ 340 plate reader with SOFTmax PRO™ version 1.2.0. A positive control with 100 µl of 0.4% erythrocyte lysed in 1% Triton-X 100 was taken as 100% lysis. The negative control was the erythrocytes in PFS alone, which gave minimal lysis. This was taken as 0%.
# [7] = ligand LPS S. minnesota Re595; read-out: Equilibrium constant; cited from earlier work
# [8] = test system: P.aeruginosa; settings: cited from earlier work
compound,measurement,setting,value
CC[C@H](C)[C@H](NC(=O)[C@H](CCCNC(=N)N)NC(=O)[C@H](C)NC(=O)[C@H](CCSC)NC(=O)CNC(=O)[C@H](CCCCN)NC(=O)[C@H](CC(C)C)NC(=O)[C@H](CCCCN)NC(=O)[C@H](Cc1ccccc1)NC(=O)CN)C(=O)N[C@@H](CO)C(=O)N[C@@H](CS)C(=O)N[C@@H](CC(C)C)C(=O)N1CCC[C@H]1C(=O)N[C@@H](CC(N)=O)C(=O)NCC(=O)N[C@@H](CCC(N)=O)C(=O)N[C@@H](Cc1c[nH]c2ccccc12)C(=O)N[C@@H](CO)C(=O)N[C@@H](CC(N)=O)C(=O)N[C@@H](Cc1ccccc1)C(=O)N1CCC[C@H]1C(=O)N1CCC[C@H]1C(=O)N[C@@H](CCCCN)C(=O)N[C@@H](CS)C(=O)N[C@H](C(=O)N[C@@H](CCCNC(=N)N)C(=O)N[C@@H](CCC(=O)O)C(=O)N[C@@H](CS)C(=O)N[C@@H](C)C(=O)N[C@@H](CCSC)C(=O)N[C@H](C(=O)N[C@@H](CO)C(=O)N[C@@H](CO)C(=O)O)C(C)C)[C@@H](C)CC [S1] (H-GFKLKGMARISCLPNGQWSNFPPKCIRECAMVSS-OH; N-terminus and C-terminus assumed),EC50,[1],2.25 µM
same,Hill's plot co-operativity n,[2],2.42
same,protection,[3],22-100%
same,decrease in LPS-induced lethality,[3],20-55%
same,MBC90,[4],0.008 µM
same,MBC50,[4],≤0.03 µg/mL
same,Killing rate (time to MBC90),[5],7 min
same,Concentration of peptide to induce 50% haemolysis,[6],290 µg/mL
CC[C@H](C)[C@H](NC(=O)[C@H](CCCCN)NC(=O)[C@H](C)NC(=O)[C@H](CCCCN)NC(=O)CNC(=O)[C@H](CCCCN)NC(=O)[C@H](CC(C)C)NC(=O)[C@H](CCCCN)NC(=O)[C@H](Cc1ccccc1)NC(=O)CN)C(=O)N[C@@H](CO)C(=O)N[C@@H](CS)C(=O)N[C@@H](CC(C)C)C(=O)N1CCC[C@H]1C(=O)N[C@@H](CC(N)=O)C(=O)NCC(=O)N[C@@H](CCC(N)=O)C(=O)N[C@@H](Cc1c[nH]c2ccccc12)C(=O)N[C@@H](CO)C(=O)N[C@@H](CC(N)=O)C(=O)N[C@@H](Cc1ccccc1)C(=O)N1CCC[C@H]1C(=O)N1CCC[C@H]1C(=O)N[C@@H](CCCCN)C(=O)N[C@@H](CS)C(=O)N[C@H](C(=O)N[C@@H](CCCNC(=N)N)C(=O)N[C@@H](CCC(=O)O)C(=O)N[C@@H](CS)C(=O)N[C@@H](C)C(=O)N[C@@H](CCSC)C(=O)N[C@H](C(=O)N[C@@H](CO)C(=O)N[C@@H](CO)C(=O)O)C(C)C)[C@@H](C)CC [S1Δ] (H-GFKLKGKAKISCLPNGQWSNFPPKCIRECAMVSS-OH; N-terminus and C-terminus assumed),EC50,[1],0.875 µM
same,protection,[3],22-100%
same,decrease in LPS-induced lethality,[3],20-55%
same,MBC90,[4],0.016 µM
same,MBC50,[4],≤0.03 µg/mL
same,MBC90,[4]; concentration of peptide required to kill 90% of the strains,0.06 µg/mL
same,Killing rate (time to MBC90),[5],7 min
same,Concentration of peptide to induce 50% haemolysis,[6],295 µg/mL
"BPI pep85-99 (15 mer): 15 mer peptide of BPI (IKISGKWKAQKRFLK; UniProt P17213 116-130, looked up, fragment)",Kd,[7],1.76 µM
HAEHKVKIGVEQKYGQFPQGTEVTYTCSGNYFLM [S3],Concentration of peptide to induce 50% haemolysis,[6],160 µg/mL
HAEHKVKIKVKQKYGQFPQGTEVTYTCSGNYFLM [S3Δ],Hemolytic activity,[6],35%
same,Hemolytic activity,[6]; listed as SΔ3,35% at 100 µg/ml
same,Concentration of peptide to induce 50% haemolysis,[6],120 µg/mL
"Indolicin: cationic peptide (ILPWKWPWWPWRR; ends and bridges not checked; UniProt P33046 131-143, looked up)",MBC50,[8],64 µg/mL
same,MBC90,[8],>128 µg/mL
Magainin II,MBC50,[8],64 µg/mL
Nisin,MBC50,[8],128 µg/mL
Ranalexin,MBC50,[8],>128 µg/mL
